Data reported in US12655116B2, “Substituted isophthalic acid diamides” (Bayer Aktiengesellschaft, priority 2020, dated 2026).

Legend:
ABUTH [1] = experiment: Pre-emergence herbicidal action against ABUTH; assay type: in vivo, Abutilon theophrasti; conditions: 80 g/ha, scored visually after 3 weeks vs untreated controls (100% = plants have died, 0% = like control plants)
Method in brief: (§1)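 Visual rating at 3 weeks vs untreated pots; 0–100% scale, 100% = plants died. Treatment: aqueous WP/EC spray onto covering soil, 600–800 l/ha, 0.2% wetter, seeds in sandy loam.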

AMARE [2] = experiment: Post-emergence herbicidal action against AMARE; assay type: in vivo, Amaranthus retroflexus; conditions: 20 g/ha, visual assessment about 3 weeks after treatment, 100% = plants have died, 0% = like control plants
Method in brief: (§2)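 Weeds in sandy loam soil received a post-emergence spray at the one-leaf stage. Compounds were applied as WP or EC in water, 600 to 800 l/ha, with 0.2% wetting agent. Activity in % was judged visually after roughly 3 weeks against untreated plants.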

ABUTH [3] = experiment: Post-emergence herbicidal action against ABUTH; assay type: in vivo, Abutilon theophrasti; conditions: visual assessment about 3 weeks after treatment vs untreated controls
Method in brief: as §2

AMARE [4] = experiment: Pre-emergence herbicidal action against AMARE; assay type: in vivo, Amaranthus retroflexus
Method in brief: as §1

ALOMY [5] = experiment: Pre-emergence herbicidal action against ALOMY; assay type: in vivo, Alopecurus myosuroides; conditions: 80 g/ha, pre-emergence, scored visually after 3 weeks vs untreated controls (100% = plants have died, 0% = like control plants)
Method in brief: as §1

VERPE [6] = experiment: Post-emergence herbicidal action against VERPE; assay type: in vivo, Veronica persica; conditions: 20 g/ha
Procedure: (§3) Seeds of monocotyledonous and dicotyledonous weed and crop plants are laid out in sandy loam soil in wood-fiber pots, covered with soil and cultivated in a greenhouse under good growth conditions. 2 to 3 weeks after sowing, the test plants are treated at the one-leaf stage. The compounds of the invention, formulated in the form of wettable powders (WP) or as emulsion concentrates (EC), are then sprayed onto the green parts of the plants in the form of an aqueous suspension or emulsion at a water application rate equivalent to 600 to 800 l/ha, with addition of 0.2% wetting agent. After the test plants have been left to stand in the greenhouse under optimal growth conditions for about 3 weeks, the action of the preparations is assessed visually in comparison to untreated controls (herbicidal action in percent (%): 100% activity=the plants have died, 0% activity=like control plants). […] The tables below illustrate, in an illustrative manner, the post-emergence herbicidal action of the compounds of the invention, the herbicidal activity being stated in percent.

VIOTR [7] = experiment: Pre-emergence herbicidal action against VIOTR; assay type: in vivo, Viola tricolor
Method in brief: as §1

MATIN [8] = experiment: Pre-emergence herbicidal action against MATIN; assay type: in vivo, Matricaria inodora
Method in brief: as §1

ECHCG [9] = experiment: Post-emergence herbicidal action against ECHCG; assay type: in vivo, Echinochloa crus-galli; conditions: dosage 20 g/ha
Method in brief: as §2

VIOTR [10] = experiment: Post-emergence herbicidal action against VIOTR; assay type: in vivo, Viola tricolor
Method in brief: as §2

ALOMY [11] = experiment: Post-emergence herbicidal action against ALOMY; assay type: in vivo, Alopecurus myosuroides; conditions: visual assessment about 3 weeks after treatment vs untreated controls
Procedure: as §3

PHBPU = experiment: Post-emergence herbicidal action against PHBPU; assay type: in vivo, Pharbitis purpurea
Method in brief: as §2

VERPE [12] = experiment: Pre-emergence herbicidal action against VERPE; assay type: in vivo, Veronica persica; conditions: Veronica persica, 504 h
Method in brief: as §1

AVEFA = experiment: Pre-emergence herbicidal action against AVEFA; assay type: in vivo, Avena fatua; conditions: 80 g/ha, pre-emergence
Method in brief: as §1

SETVI [13] = experiment: Post-emergence herbicidal action against SETVI; assay type: in vivo, Setaria viridis
Method in brief: as §2

SETVI [14] = experiment: Pre-emergence herbicidal action against SETVI; assay type: in vivo, Setaria viridis; conditions: dosage 80 g/ha
Method in brief: as §1

ECHCG [15] = experiment: Pre-emergence herbicidal action against ECHCG; assay type: in vivo, Echinochloa crus-galli; conditions: 80 g/ha
Method in brief: as §1

MATIN [16] = experiment: Post-emergence herbicidal action against MATIN; assay type: in vivo, Matricaria inodora; conditions: dosage 20 g/ha
Procedure: as §3

[17] = 80 g/ha, scored visually after 3 weeks vs untreated controls (100% = plants have died, 0% = like control plants)

## COCCNC(=O)c1c(C(F)F)ccc(C(=O)Nc2nnnn2C)c1C [Example 1-347]
ABUTH [1]
  Pre-emergence action against ABUTH (herbicidal activity): 100%
AMARE [2]
  Post-emergence action at 20 g/ha against AMARE in %: 100%
ABUTH [3]; dosage 5 g/ha
  Post-emergence action against ABUTH in %: 80%
ABUTH [3]; dosage 20 g/ha
  Post-emergence action against ABUTH in %: 90%
AMARE [4]; [17]
  Pre-emergence action against AMARE in %: 100%
ALOMY [5]
  Pre-emergence action against ALOMY (herbicidal activity): 80%
VERPE [6]
  Post-emergence action against VERPE in %: 90%
VIOTR [7]; dosage 80 g/ha
  Pre-emergence action against VIOTR in %: 80%
MATIN [8]; dosage 80 g/ha
  Pre-emergence action against MATIN in %: 90%
ECHCG [9]
  Post-emergence action against ECHCG in %: 90%
VIOTR [10]; 5 g/ha
  Post-emergence action against VIOTR in %: 80%
VIOTR [10]; 20 g/ha
  Post-emergence action against VIOTR in %: 100%
ALOMY [11]; dosage 20 g/ha
  Post-emergence action against ALOMY in %: 80%
PHBPU; dosage 5 g/ha
  Post-emergence action against PHBPU in %: 90%
PHBPU; dosage 20 g/ha
  Post-emergence action against PHBPU in %: 90%

## COc1ccc(C(=O)Nc2nnnn2C)c(Cl)c1C(=O)NC1CC1 [Example 1-356]
ABUTH [1]; Abutilon theophrasti, 504 h
  pest or weed control at 80 g/ha: 100%
AMARE [2]; Amaranthus retroflexus, 504 h
  pest or weed control at 20 g/ha: 100%
ABUTH [3]; Abutilon theophrasti, 504 h, dosage 20 g/ha
  pest or weed control at 20 g/ha: 100%
AMARE [4]; Amaranthus retroflexus, 504 h, 20 g/ha, scored visually after 3 weeks vs untreated controls, 100% = plants have died, 0% = like control plants
  pest or weed control at 20 g/ha: 100%
AMARE [4]; Amaranthus retroflexus, 504 h, 80 g/ha, scored visually after 3 weeks vs untreated controls, 100% = plants have died, 0% = like control plants
  pest or weed control at 80 g/ha: 100%
ALOMY [5]; Alopecurus myosuroides, 504 h
  pest or weed control at 80 g/ha: 100%
VERPE [6]; Veronica persica, 504 h
  pest or weed control at 20 g/ha: 90%
VIOTR [7]; Viola tricolor, 504 h, dosage 80 g/ha
  pest or weed control at 80 g/ha: 100%
MATIN [8]; Tripleurospermum inodorum, 504 h, dosage 80 g/ha
  pest or weed control at 80 g/ha: 100%
VIOTR [10]; Viola tricolor, 504 h, 20 g/ha
  pest or weed control at 20 g/ha: 90%
ALOMY [11]; Alopecurus myosuroides, 504 h, dosage 20 g/ha
  pest or weed control at 20 g/ha: 80%
PHBPU; Ipomoea purpurea, 504 h, dosage 20 g/ha
  pest or weed control at 20 g/ha: 80%
VERPE [12]; dosage 20 g/ha
  pest or weed control at 20 g/ha: 100%
VERPE [12]; dosage 80 g/ha
  pest or weed control at 80 g/ha: 100%

## CCn1nnnc1NC(=O)c1ccc(OC)c(C(=O)NC)c1Cl [Example 2-352]
ABUTH [1]
  Pre-emergence action against ABUTH (herbicidal activity): 100%
AMARE [2]
  Post-emergence action at 20 g/ha against AMARE in %: 100%
ABUTH [3]; dosage 20 g/ha
  Post-emergence action against ABUTH in %: 80%
AMARE [4]; 20 g/ha, scored visually after 3 weeks vs untreated controls, 100% = plants have died, 0% = like control plants
  Pre-emergence action against AMARE in %: 100%
AMARE [4]; [17]
  Pre-emergence action against AMARE in %: 100%
AVEFA
  Pre-emergence action against AVEFA in %: 80%
ALOMY [5]
  Pre-emergence action against ALOMY (herbicidal activity): 90%
VERPE [6]
  Post-emergence action against VERPE in %: 90%
VIOTR [7]; dosage 20 g/ha
  Pre-emergence action against VIOTR in %: 80%
VIOTR [7]; dosage 80 g/ha
  Pre-emergence action against VIOTR in %: 80%
MATIN [8]; dosage 20 g/ha
  Pre-emergence action against MATIN in %: 90%
MATIN [8]; dosage 80 g/ha
  Pre-emergence action against MATIN in %: 90%
ECHCG [9]
  Post-emergence action against ECHCG in %: 90%
SETVI [13]; dosage 5 g/ha
  Post-emergence action against SETVI in %: 80%
SETVI [13]; dosage 20 g/ha
  Post-emergence action against SETVI in %: 80%
VIOTR [10]; 20 g/ha
  Post-emergence action against VIOTR in %: 90%
ALOMY [11]; dosage 5 g/ha
  Post-emergence action against ALOMY in %: 80%
ALOMY [11]; dosage 20 g/ha
  Post-emergence action against ALOMY in %: 90%
SETVI [14]
  Pre-emergence action against SETVI in %: 100%
PHBPU; dosage 20 g/ha
  Post-emergence action against PHBPU in %: 80%
ECHCG [15]
  Pre-emergence action against ECHCG in %: 80%
MATIN [16]
  Post-emergence action against MATIN in %: 80%
